# PubChem BioAssay (NCI)
#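 The compound was tested at five concentrations on cells cultured in 96-well plates, with a 48-hour exposure period. TGI is the concentration that stops growth completely.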
# What was measured:
# Assay in all cases: growth of human tumour cells (NCI), 48 h
# 786-0 renal = test system: 786-0 renal
# A498 renal = test system: A498 renal
# A549 NSCLC = test system: A549 NSCLC
# ACHN renal = test system: ACHN renal
# CAKI-1 renal = test system: CAKI-1 renal
# CCRF-CEM leukemia = test system: CCRF-CEM leukemia
# COLO 205 colon = test system: COLO 205 colon
# DLD-1 colon = test system: DLD-1 colon
# DMS 114 small cell lung = test system: DMS 114 small cell lung
# EKVX NSCLC = test system: EKVX NSCLC
# HCT-116 colon = test system: HCT-116 colon
# HL-60(TB) leukemia = test system: HL-60(TB) leukemia
# HOP-62 NSCLC = test system: HOP-62 NSCLC
# HOP-92 NSCLC = test system: HOP-92 NSCLC
# HT29 colon = test system: HT29 colon
# K-562 leukemia = test system: K-562 leukemia
# KM12 colon = test system: KM12 colon
# KM20L2 colon = test system: KM20L2 colon
# LXFL 529 NSCLC = test system: LXFL 529 NSCLC
# M14 melanoma = test system: M14 melanoma
# M19-MEL melanoma = test system: M19-MEL melanoma
# MALME-3M melanoma = test system: MALME-3M melanoma
# MOLT-4 leukemia = test system: MOLT-4 leukemia
# NCI-H226 lung = test system: NCI-H226 lung
# NCI-H23 lung = test system: NCI-H23 lung
# NCI-H460 lung = test system: NCI-H460 lung
# NCI-H522 lung = test system: NCI-H522 lung
# OVCAR-3 ovarian = test system: OVCAR-3 ovarian
# OVCAR-4 ovarian = test system: OVCAR-4 ovarian
# OVCAR-5 ovarian = test system: OVCAR-5 ovarian
# OVCAR-8 ovarian = test system: OVCAR-8 ovarian
# RPMI-8226 leukemia = test system: RPMI-8226 leukemia
# SF-268 CNS = test system: SF-268 CNS
# SF-295 CNS = test system: SF-295 CNS
# SK-MEL-2 melanoma = test system: SK-MEL-2 melanoma
# SK-MEL-28 melanoma = test system: SK-MEL-28 melanoma
# SK-MEL-5 melanoma = test system: SK-MEL-5 melanoma
# SK-OV-3 ovarian = test system: SK-OV-3 ovarian
# SN12C renal = test system: SN12C renal
# SNB-19 CNS = test system: SNB-19 CNS
# SNB-75 CNS = test system: SNB-75 CNS
# SNB-78 CNS = test system: SNB-78 CNS
# SR leukemia = test system: SR leukemia
# SW-620 colon = test system: SW-620 colon
# TK-10 renal = test system: TK-10 renal
# U251 CNS = test system: U251 CNS
# UACC-257 melanoma = test system: UACC-257 melanoma
# UACC-62 melanoma = test system: UACC-62 melanoma
# UO-31 renal = test system: UO-31 renal
# XF 498 CNS = test system: XF 498 CNS
# DMS 273 small cell lung = test system: DMS 273 small cell lung
# HCT-15 colon = test system: HCT-15 colon
# HOP-18 NSCLC = test system: HOP-18 NSCLC
# IGROV1 ovarian = test system: IGROV1 ovarian
# LOX IMVI melanoma = test system: LOX IMVI melanoma
# RXF 393 renal = test system: RXF 393 renal
# SF-539 CNS = test system: SF-539 CNS
smiles,measurement,setting,value
O=C1OC(Cc2ccccc2)(N2CCCC2=O)C1c1ccccc1 (configuration not stated),TGI,786-0 renal,> 100 µM
same,TGI,A498 renal,> 100 µM
same,TGI,A549 NSCLC,> 100 µM
same,TGI,ACHN renal,> 100 µM
same,TGI,CAKI-1 renal,> 100 µM
same,TGI,CCRF-CEM leukemia,> 100 µM
same,TGI,COLO 205 colon,> 100 µM
same,TGI,DLD-1 colon,> 100 µM
same,TGI,DMS 114 small cell lung,81 µM
same,TGI,EKVX NSCLC,> 100 µM
same,TGI,HCT-116 colon,> 100 µM
same,TGI,HL-60(TB) leukemia,> 100 µM
same,TGI,HOP-62 NSCLC,> 100 µM
same,TGI,HOP-92 NSCLC,> 100 µM
same,TGI,HT29 colon,> 100 µM
same,TGI,K-562 leukemia,> 100 µM
same,TGI,KM12 colon,> 100 µM
same,TGI,KM20L2 colon,> 100 µM
same,TGI,LXFL 529 NSCLC,> 100 µM
same,TGI,M14 melanoma,> 100 µM
same,TGI,M19-MEL melanoma,> 100 µM
same,TGI,MALME-3M melanoma,> 100 µM
same,TGI,MOLT-4 leukemia,> 100 µM
same,TGI,NCI-H226 lung,> 100 µM
same,TGI,NCI-H23 lung,> 100 µM
same,TGI,NCI-H460 lung,> 100 µM
same,TGI,NCI-H522 lung,> 100 µM
same,TGI,OVCAR-3 ovarian,> 100 µM
same,TGI,OVCAR-4 ovarian,> 100 µM
same,TGI,OVCAR-5 ovarian,> 100 µM
same,TGI,OVCAR-8 ovarian,> 100 µM
same,TGI,RPMI-8226 leukemia,> 100 µM
same,TGI,SF-268 CNS,> 100 µM
same,TGI,SF-295 CNS,> 100 µM
same,TGI,SK-MEL-2 melanoma,> 100 µM
same,TGI,SK-MEL-28 melanoma,> 100 µM
same,TGI,SK-MEL-5 melanoma,> 100 µM
same,TGI,SK-OV-3 ovarian,> 100 µM
same,TGI,SN12C renal,> 100 µM
same,TGI,SNB-19 CNS,> 100 µM
same,TGI,SNB-75 CNS,> 100 µM
same,TGI,SNB-78 CNS,> 100 µM
same,TGI,SR leukemia,> 100 µM
same,TGI,SW-620 colon,> 100 µM
same,TGI,TK-10 renal,> 100 µM
same,TGI,U251 CNS,> 100 µM
same,TGI,UACC-257 melanoma,> 100 µM
same,TGI,UACC-62 melanoma,> 100 µM
same,TGI,UO-31 renal,> 100 µM
same,TGI,XF 498 CNS,88.5 µM
CCCCCCCOc1ccc(/C=C\c2cc[n+](CCCCCCCC[n+]3ccc(/C=C\c4ccc(OCCCCCCC)cc4)cc3)cc2)cc1,TGI,786-0 renal,32 µM
same,TGI,A498 renal,80.8 µM
same,TGI,A549 NSCLC,41.5 µM
same,TGI,ACHN renal,> 100 µM
same,TGI,CAKI-1 renal,63.7 µM
same,TGI,CCRF-CEM leukemia,> 100 µM
same,TGI,COLO 205 colon,58.7 µM
same,TGI,DLD-1 colon,67 µM
same,TGI,DMS 114 small cell lung,36 µM
same,TGI,DMS 273 small cell lung,71.1 µM
same,TGI,EKVX NSCLC,> 100 µM
same,TGI,HCT-116 colon,26.5 µM
same,TGI,HCT-15 colon,34.1 µM
same,TGI,HL-60(TB) leukemia,> 100 µM
same,TGI,HOP-18 NSCLC,28.4 µM
same,TGI,HOP-62 NSCLC,> 100 µM
same,TGI,HOP-92 NSCLC,> 100 µM
same,TGI,HT29 colon,28.7 µM
same,TGI,IGROV1 ovarian,33.3 µM
same,TGI,KM12 colon,28.2 µM
same,TGI,KM20L2 colon,63.1 µM
same,TGI,LOX IMVI melanoma,> 100 µM
same,TGI,LXFL 529 NSCLC,34.8 µM
same,TGI,M14 melanoma,34.5 µM
same,TGI,M19-MEL melanoma,> 100 µM
same,TGI,MALME-3M melanoma,33.7 µM
same,TGI,MOLT-4 leukemia,62.2 µM
same,TGI,NCI-H23 lung,> 100 µM
same,TGI,NCI-H460 lung,17 µM
same,TGI,NCI-H522 lung,10.7 µM
same,TGI,OVCAR-3 ovarian,33.1 µM
same,TGI,OVCAR-4 ovarian,> 100 µM
same,TGI,OVCAR-5 ovarian,46.5 µM
same,TGI,OVCAR-8 ovarian,55.5 µM
same,TGI,RPMI-8226 leukemia,> 100 µM
same,TGI,RXF 393 renal,> 100 µM
same,TGI,SF-268 CNS,44.6 µM
same,TGI,SF-295 CNS,> 100 µM
same,TGI,SF-539 CNS,> 100 µM
same,TGI,SK-MEL-2 melanoma,74.3 µM
same,TGI,SK-MEL-28 melanoma,32.2 µM
same,TGI,SK-MEL-5 melanoma,27.7 µM
same,TGI,SK-OV-3 ovarian,57.8 µM
same,TGI,SN12C renal,57 µM
same,TGI,SNB-19 CNS,> 100 µM
same,TGI,SNB-75 CNS,> 100 µM
same,TGI,SNB-78 CNS,> 100 µM
same,TGI,TK-10 renal,43.7 µM
same,TGI,U251 CNS,24.6 µM
same,TGI,UACC-257 melanoma,> 100 µM
same,TGI,UACC-62 melanoma,> 100 µM
same,TGI,UO-31 renal,41.2 µM
